This note sets out measurements from patent US9157917B2, “Applications of Indoloindole and Indoloquinoline dyes” (Biosynth AG, priority 2010, dated 2015).

SMILES strings stand for the structures.

Data set [1] is described as follows: Application of aqueous dye suspensions to PP tubes and PE pellets at different temperatures. It counts as physicochemical. As to conditions: for Fluorescence of PP tubes and PE pellets, comparison between dyes: 22° C., 37° C., 90° C. The protocol:
The application of dye to plastic can be improved by increasing the temperature. Aqueous suspensions of Aldol™ 470, 495, 515 and 518 dyes in PP tubes containing PE pellets were incubated at three different temperatures (22° C., 37° C., and 90° C.). The resulting fluorescence of PP tubes and PE pellets was much stronger after incubation at 90° C. for 5 hours than after 24 hours incubation at 37° C. or 22° C. Incubation at 37° C. led to more fluorescence than incubation at 22° C. Fluorescence after incubation at 22° C. was very weak, except for PE pellets incubated in the presence of Aldol™ 495 dye and Aldol™ 515 dye.

A short description of data set [2]: Excitation and emission spectra of dye in polypropylene. It counts as physicochemical. As to conditions: in polypropylene microtiter plate. The protocol: The excitation and emission spectra of the Aldol™ 495 dye in PP were measured in a standard plate reader using a polypropylene microtiter plate that has been incubated with broth containing Aldol™ 495 beta-D-galactoside and an E. coli culture. […] The optimal excitation is at 310 nm (FIG. 1).

Data set [3] in a line: Fluorescence of IO dyes in various hosts. It counts as physicochemical. The protocol:
In this description various IO dyes are given as illustrative examples (Scheme I) but these examples shall not limit the invention in any way. It was discovered that IO/IQ dyes have a strong solvatochromic effect. When, for example, the 470-, 495- and 515-dyes were dissolved in a series of solvents, the fluorescence of the solution was higher the lower the polarity of the solvent was. […] It was also discovered that the fluorescence color might change with the solvent used.

A short description of data set [4]: Release of dyes from precursors through heat in PP tubes containing PE pellets. It counts as physicochemical. As to conditions: PP tubes and PE pellets (emptied and flushed with water) after heating for 40 min at 90° C. How it is done: As a further example the release of Aldol™ 470-, 495-, and 515 dyes from various Aldol™ acetate precursors through heat is given: The compounds were incubated at room temperature and at 90° C. for 40 min in PP tubes containing PE pellets. […] Whereas for all tubes at room temperature neither coloration nor fluorescence was detected, the Aldol™ acetates but not the Aldol™ galactosides were instable at 90° C. and led to fluorescence of the PP and PE host (Table 2).

The test system of data set [5] is E. coli. The data set is described as follows: Fluorescence of colonies on membrane filters. It counts as cell-based. As to conditions: Naked nutrient agar, 0.4 mM, 14-16 hours at 37° C.
Data set [6] has as its target E. coli beta-galactosidase (Escherichia coli, UniProt P00722). The protocol:
100 mM sodium phosphate buffer (pH 7.3) containing 1 mM MgCl2 and 0.5 mM Aldol™ 495 beta-D-galactoside, was distributed into glass, polystyrene and polypropylene tubes (two of each). Purified E. coli beta-galactosidase was added to half of the tubes, the other half serving as negative controls.

The subject of data set [7] is S. enteritidis. The data set is described as follows: Peptone broth culture in tubes.
Data set [8] deals with E. coli. Description: Peptone broth culture in tubes.
Data set [9] concerns various bacterial strains. Description: Nonanoate indicators in buffered peptone water in polystyrene plates. To be noted: 0.2 mM, polystyrene plate, 37° C., excitation 360 nm, emission 460 nm. It counts as cell-based. The protocol: Buffered peptone water containing either 0.4 mM Aldol™ 495 nonanoate or 0.2 mM 4-methylumbelliferyl nonanoate was dispensed in a microtiter plate and inoculated with about 700 cfu/ml of various bacterial strains. […] An excitation wavelength of 360 nm was used for both dyes, the emission wavelength was 560 nm for the Aldol™ 495 dye and 460 nm for the 4-methylumbelliferone.

Data set [10] can be described thus: Stamping on LDPE film, stability to treatments. It counts as physicochemical. The protocol: Three pieces of felt were soaked with ethanol containing 0.5 mM of Aldol™ 470, Aldol™ 495 or Aldol™ 515 dye respectively. A stamp was pressed first on the felt then on a piece of low density polyethylene film. The film was left to dry for 15 minutes and then exposed to various treatments (Table 4).

The test system of data set [11] is phosphatase coupled goat anti rabbit antibody. Description: Dot blot on nitrocellulose membrane. It counts as biochemical. As to conditions: 0.4 mM in assay buffer pH 9.5. The source says: Western Blotting is a routine technique for protein analysis. A widely used, cost-effective and simple way for signal detection is the reaction of a chromogenic phosphatase indicator with alkaline phosphatase coupled to the secondary antibody, yielding a colored band or spot. The IO/IQ indicators offer an easy way for fluorescent and chromogenic western blotting based on the same principle as the common chromogenic western blotting, the only difference being the phosphatase indicator. […] In addition, after longer incubation the dots were also clearly identified under white light through their yellow color. Thus, IO/IQ indicators offer a way of performing chromogenic and fluorogenic blotting assay at the same time.
0.16 μg of beta-galactosidase in 4 μl of phosphate buffer was spotted on a nitrocellulose membrane. The membrane was dried for 15 min and then blocked in TBS-T (20 mM Tris-HCl, 150 mM NaCl, 0.05% Tween20, pH 7.5) with 5% BSA for one hour. Then the membrane was incubated with a rabbit anti-beta-galactosidase antibody in TBS-T/5% BSA for one hour, washed three times for 5 min in TBS-T, and incubated with a phosphatase coupled goat anti rabbit antibody in TBS-T/5% BSA for one hour. […]

The subject of data set [12] is S. enteritidis. Description: Cultures with paraffin oil overlay.
Data set [13] has as its system E. coli. The data set is described as follows: Cultures with paraffin oil overlay.
Setting [14] is: paraffin oil overlay 0 μl, 16 h.
Where [15] appears, read: paraffin oil overlay 0 μl, 21 h.
The mark [16] stands for this setting: paraffin oil overlay 0 μl, 40 h.
Setting [17] is: paraffin oil overlay 50 μl, 16 h.
Setting [18] is: paraffin oil overlay 50 μl, 21 h.
Setting [19] is: paraffin oil overlay 50 μl, 40 h.
The mark [20] stands for this setting: paraffin oil overlay 300 μl, 16 h.
Where [21] appears, read: paraffin oil overlay 300 μl, 21 h.
Where [22] appears, read: paraffin oil overlay 300 μl, 40 h.

Chain of E. coli beta-galactosidase (P00722 2-1024): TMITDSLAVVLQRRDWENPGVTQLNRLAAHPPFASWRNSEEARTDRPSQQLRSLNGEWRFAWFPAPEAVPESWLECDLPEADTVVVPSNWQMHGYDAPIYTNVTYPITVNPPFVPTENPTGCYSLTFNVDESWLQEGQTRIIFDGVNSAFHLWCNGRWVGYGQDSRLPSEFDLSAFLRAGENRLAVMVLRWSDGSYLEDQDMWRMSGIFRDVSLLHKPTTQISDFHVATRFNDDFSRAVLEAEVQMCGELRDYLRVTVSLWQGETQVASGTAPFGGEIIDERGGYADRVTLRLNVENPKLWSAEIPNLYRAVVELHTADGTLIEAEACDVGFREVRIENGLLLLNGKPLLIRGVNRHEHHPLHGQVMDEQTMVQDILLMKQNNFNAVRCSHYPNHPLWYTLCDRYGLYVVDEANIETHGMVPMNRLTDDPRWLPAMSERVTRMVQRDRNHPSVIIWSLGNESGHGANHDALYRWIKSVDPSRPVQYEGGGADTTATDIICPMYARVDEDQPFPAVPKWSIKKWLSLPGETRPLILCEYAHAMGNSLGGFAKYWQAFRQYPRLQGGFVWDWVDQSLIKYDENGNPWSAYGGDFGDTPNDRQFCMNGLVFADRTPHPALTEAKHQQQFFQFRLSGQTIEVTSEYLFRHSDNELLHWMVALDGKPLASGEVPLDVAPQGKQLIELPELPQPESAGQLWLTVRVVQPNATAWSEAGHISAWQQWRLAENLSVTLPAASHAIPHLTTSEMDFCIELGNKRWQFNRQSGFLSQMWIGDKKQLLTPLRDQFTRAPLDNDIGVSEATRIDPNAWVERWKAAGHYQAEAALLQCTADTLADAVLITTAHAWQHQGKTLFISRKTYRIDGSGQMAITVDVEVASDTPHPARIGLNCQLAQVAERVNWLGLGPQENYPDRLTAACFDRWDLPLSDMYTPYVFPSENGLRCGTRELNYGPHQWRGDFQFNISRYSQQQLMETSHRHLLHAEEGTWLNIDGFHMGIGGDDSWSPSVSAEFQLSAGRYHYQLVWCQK

For the molecule `Cn1cccc1-c1c2n(c3ccccc13)-c1cc(Cl)ccc1C2=O` [Aldol™ 495 dye], the “Fluorescence of PP tubes and PE pellets after 90° C. for 5 hours versus 24 hours at 37° C. or 22° C.” value in [1] is reported as “much stronger”. In addition, the “Fluorescence of PP tubes and PE pellets, comparison between dyes” value in [1] was “more fluorescence than Aldol™ 515 dye”. The Emission maximum in [2] is on record as 510 nm. This molecule displayed an Optimal excitation in data set [2] of 310 nm. Also, the Fluorescence intensity entry in data set [3] (Acetone) is recorded as “Strong”; in data set [3] (Silicon oil) it was “Medium”; in data set [3] (Water), “None”. The Fluorescence color entry is listed as “Green” in data set [3] (Mineral oil), “Green” in data set [3] (Paraffin oil) and “None” in data set [3] (Water).
In the case of `CC(=O)Oc1cn(-c2ccccc2C(=O)c2cccn2C)c2cc(Cl)ccc12` [Aldol ™ 495 acetate], in data set [4], the Color of tube result is listed as “Very light green”.
On to `Cn1cccc1C(=O)c1ccccc1-n1cc(O[C@@H]2O[C@H](CO)[C@H](O)[C@H](O)[C@H]2O)c2ccc(Cl)cc21` [Aldol™ 495 beta-D-galactoside], for which, in the data set with E. coli [5], the “Fluorescence of E. coli colonies” value is recorded as “No fluorescence”. Further, in data set [6] (0.5 mM, pH 7.3, glass, polystyrene and polypropylene tubes with beta-galactosidase), the “Color under white light” value is reported as “red-brown precipitate”. For the same molecule, the “Time until new polypropylene tube started to fluoresce after transfer of content” value in data set [6] (content of fluorescent PP tube transferred into new PP tube) is reported as “around 10 minutes”. In addition, the “Fluorescence of PP tube under UV light (366 nm)” value with S. enteritidis [7] (0.4 mM in peptone broth, 16 h incubation) is reported as “No fluorescence”; with S. enteritidis [7] (after autoclaving and emptying tube), “No fluorescence”; with S. enteritidis [7] (after washing in dish-washer) it was “No fluorescence”; with E. coli [8] (E. coli, 0.4 mM in peptone broth, 16 h incubation) it was “Strong green”; in the data set on E. coli [8] (E. coli, after autoclaving and emptying tube), “Strong green”; in the data set with E. coli [8] (E. coli, after washing in dish-washer) it was “Strong green”. For the same molecule, the “Fluorescence of glass tube” value was “no fluorescence” with S. enteritidis [7] (0.4 mM in peptone broth, glass test tubes) and “no fluorescence” with E. coli [8] (E. coli, 0.4 mM in peptone broth, glass test tubes). For the same molecule, in data set [4], the Color of tube result is on record as “No color”. Further, in data set [4], the Fluorescence of tube result is listed as “No fluorescence”. Further, the “Stability under autoclaving conditions” value in the data set on E. coli [8] (in the medium tested) is “stable under autoclaving conditions”.
For `CN(C)c1ccc(-c2c3n(c4ccccc24)-c2cc(Cl)ccc2C3=O)cc1` [Aldol™ 518 dye], the “Fluorescence of PP tubes and PE pellets after 90° C. for 5 hours versus 24 hours at 37° C. or 22° C.” value in data set [1] was “much stronger”.
Regarding `CCCCCCCCC(=O)Oc1ccc2c(C)cc(=O)oc2c1` [4-methylumbelliferyl nonanoate, reference compound], the “Fluorescence of C9 esterase negative strains and sterile control” value in data set [9] is listed as “strong fluorescence”.
As to `CC(=O)Oc1cn(-c2ccccc2C(=O)c2ccc(N(C)C)cc2)c2ccccc12` [Aldol ™ 515 acetate], in [4], the Color of tube result is reported as “Very light orange”.
On to `COc1ccc(-c2c3n(c4ccccc24)-c2ccccc2C3=O)c(OC)c1` [Aldol™ 470 dye], for which the “Fluorescence of PP tubes and PE pellets after 90° C. for 5 hours versus 24 hours at 37° C. or 22° C.” value in [1] is reported as “much stronger”. Further, the “Fluorescence of imprint on LDPE film” value in [10] (After soaking for 18 h in ethanol) is listed as “No fluorescence”. Further, the Fluorescence color result was “Green” in data set [3] (Acetone), “orange” in data set [3] (Ethanol), “Green” in data set [3] (Mineral oil) and “Green” in [3] (Paraffin oil). The Fluorescence intensity entry was “Strong” in [3] (Acetone), “Medium” in [3] (Mineral oil), “Medium” in [3] (Paraffin oil) and “Weak” in data set [3] (Silicon oil).
For `COc1ccc(C(=O)c2ccccc2-n2cc(OP(=O)(O)O)c3ccccc32)c(OC)c1` [Aldol™ 470 phosphate], in data set [11], the “Fluorescence or coloration of spot of alpha-amylase (negative control)” value is “No fluorescence or coloration”.
`COc1ccc(C(=O)c2ccccc2-n2cc(O[C@@H]3O[C@H](CO)[C@H](O)[C@H](O)[C@H]3O)c3ccccc32)c(OC)c1` [Aldol™ 470 beta-D-galactoside]: in data set [4], the Color of tube result is on record as “No color” and the Fluorescence of tube entry was “No fluorescence”.
`CN(C)c1ccc(-c2c3n(c4ccccc24)-c2ccccc2C3=O)cc1` [Aldol™ 515 dye]: the “Fluorescence of PP tubes and PE pellets after 90° C. for 5 hours versus 24 hours at 37° C. or 22° C.” value in [1] was “much stronger”. Moreover, the “Fluorescence of PP tubes and PE pellets, comparison between dyes” value in data set [1] is “more fluorescence than Aldol™ 518 dye and Aldol™ 470 dye”. In addition, in data set [10] (under the conditions tested, compared with the other dyes), the “Stability of stamping on LDPE” value is “most stable”. In addition, the Fluorescence color result is recorded as “Red” in data set [3] (Acetone); “Red” in [3] (Ethanol); “Yellow” in data set [3] (Mineral oil); “Red” in data set [3] (Silicon oil); “Red” in data set [3] (Water). Moreover, the Fluorescence intensity result is on record as “Medium” in data set [3] (Acetone) and “Weak” in [3] (Ethanol).
In the case of `COc1ccc(C(=O)c2ccccc2-n2cc(NC(=O)[C@H](C)N)c3ccccc32)c(OC)c1` [Aldol™ 470 L-alanine amide], in the data set with E. coli [5], the “Fluorescence of E. coli colonies” value is given as “No fluorescence”.
As for `COc1ccc(C(=O)c2ccccc2-n2cc(OC(C)=O)c3ccccc32)c(OC)c1` [Aldol ™ 470 acetate], the Color of tube entry in [4] is listed as “Light yellow”.
Regarding `CN(C)c1ccc(C(=O)c2ccccc2-n2cc(O[C@@H]3O[C@H](CO)[C@H](O)[C@H](O)[C@H]3O)c3ccc(Cl)cc32)cc1` [Aldol™ 518 beta-D-galactoside], the Color entry with S. enteritidis [12] (setting [14]), with S. enteritidis [12] (setting [15]), in the data set on S. enteritidis [12] (setting [16]), with S. enteritidis [12] (setting [17]), with S. enteritidis [12] (setting [18]) and in the data set on S. enteritidis [12] (setting [19]) was “Beige” throughout. In addition, the Color entry with S. enteritidis [12] (setting [20]) is listed as “Beige”; in the data set with S. enteritidis [12] (setting [21]) it was “Beige”; in the data set with S. enteritidis [12] (setting [22]), “Beige”; in the data set with E. coli [13] (setting [14]), “Red”; in the data set with E. coli [13] (setting [15]), “Red”; in the data set with E. coli [13] (setting [16]) it was “Red”. Further, the Color entry in the data set with E. coli [13] (setting [17]), in the data set with E. coli [13] (setting [18]), with E. coli [13] (setting [19]), in the data set on E. coli [13] (setting [20]), in the data set on E. coli [13] (setting [21]) and with E. coli [13] (setting [22]) was “Red” in each case. Further, the Color of tube result in [4] was “No color”. Besides, in data set [4], the Fluorescence of tube result is “No fluorescence”.
